Source: article PMC10412585 (Nature Communications, 2023)

What was measured:
CD94/NKG2A [1] = target: T1, CD94/NKG2A (Homo sapiens, UniProt P26715+Q13241); experiment: Steady-state SPR of peptide-HLA-E single chain trimers with CD94/NKG2A; type: binding; conditions: SPR with CD94/NKG2A and CD94/NKG2C, Fig. 5B; taken as lower stability of the peptide-HLA-E complex
T1 construct: The C-terminus of human NKG2A or NKG2C ectodomain was connected via a GGSGGS linker to human CD94 ectodomain; AviTag biotinylation tag (C); poly-histidine tag (C); made in house; host or cells: baculovirus, High Five (Hi5) insect cells
T1 sequence (Q13241 whole entry, looked up, the tested form may be a part): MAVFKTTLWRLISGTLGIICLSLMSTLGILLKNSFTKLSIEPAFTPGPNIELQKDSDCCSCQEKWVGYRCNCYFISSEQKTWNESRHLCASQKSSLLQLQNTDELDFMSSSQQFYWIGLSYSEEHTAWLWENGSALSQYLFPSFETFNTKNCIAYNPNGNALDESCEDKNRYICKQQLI
T1 sequence (P26715 whole entry, looked up, the tested form may be a part): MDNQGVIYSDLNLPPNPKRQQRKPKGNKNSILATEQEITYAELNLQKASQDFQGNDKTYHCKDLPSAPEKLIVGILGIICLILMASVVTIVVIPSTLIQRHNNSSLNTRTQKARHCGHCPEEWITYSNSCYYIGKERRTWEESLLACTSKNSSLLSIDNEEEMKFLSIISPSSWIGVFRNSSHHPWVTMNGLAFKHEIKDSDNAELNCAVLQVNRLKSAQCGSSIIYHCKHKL
Protocol: Specifically, we measured CD94/NKG2A and CD94/NKG2C affinity for HLA-E complexed with three sets of peptides. […] Third, we included […] peptide as a positive control.
Steady-state surface plasmon resonance experiments were performed with a Biacore T200 instrument. CD94/NKG2x in HBS-EP+ buffer was injected as analyte in a concentration range of 0.1 μM to 102.4 μM and flow rate of 10 μL/min at 25 °C. Data was fit with Prism 9.4 (GraphPad Software Inc; San Diego CA) to a “one site, specific binding” model. Sensorgrams are included in Supplemental Fig. 13.
For investigating WN peptides, biotinylated pMHC was immobilized at approximately 400 Response Units (RU) on a Series S SA sensor chip (Cytiva). […] CD94/NKG2A was injected followed by CD94/NKG2C.
For investigating human-derived peptides, Series S CM5 chips (Cytiva) were coupled to neutravidin and utilized. Biotinylated pMHC was immobilized at approximately 400 RU. On one chip, […] CD94/NKG2A was injected followed by CD94/NKG2C. On a second chip, PISD55-63 HLA-E SCT, AKAP6_388-396 HLA-E SCT, GTF3C5_293-301 HLA-E SCT, and reference HLA-DR401 were immobilized. CD94/NKG2C was injected followed by CD94/NKG2A. Rmax, fit values were calculated by Biacore software. Rmax, theoretical values were calculated using the analyte/ligand mass ratio (0.66) multiplied by the amount of ligand coupled to the chip.

CD94/NKG2C = CD94/NKG2C tetramer and dextramer staining of yeast-displayed peptide-HLA-E; type: binding, human; conditions: yeast-displayed single chain trimer, 500 nM tetramer, 2 h, 4 °C, flow cytometry
Excerpt: (§1) To study the diversity of the HLA-E peptide repertoire recognized by CD94/NKG2x, we adapted an MHC yeast surface display system previously used to study class Ia MHC-restricted TCR recognition[25],[26]. In this system, peptide, Beta-2-microglobulin (β2M), and MHC heavy chain are covalently linked to each other and fused to the N-terminus of the yeast mating factor protein Aga2p (Fig. 1A, B). The HLA-E single chain trimer construct expressed well on the yeast surface, as confirmed via staining for an included hemagglutinin (HA) epitope tag and via an anti-HLA-E antibody (Fig. 1C). Since epitope tag staining assesses construct expression rather than protein fold[27]–[29], we tested peptide-HLA-E (pHLA-E) fold by staining with its cognate NK receptors. […] (Supplemental Fig. 1A, E–G), though both receptors were able to bind and enable selective enrichment of […]/HLA-E-expressing yeast using avid streptavidin-coated beads (Supplemental Fig. 1B–D).
(§2) To stain peptide-HLA-E (pHLA-E) with CD94/NKG2x tetramers, each biotinylated receptor was mixed with streptavidin coupled to AlexaFluor647 (SAV-647, made in-house) at a 5:1 ratio and incubated for 5 min on ice. Yeast were stained with 500 nM tetramer for 2 h at 4 °C in the dark with rotation. […]

CD94/NKG2A [2] = target: T1, CD94/NKG2A; experiment: CD94/NKG2A tetramer staining of yeast-displayed peptide-HLA-E; type: binding; conditions: yeast-displayed single chain trimer, 500 nM tetramer, 2 h, 4 °C, flow cytometry
Excerpt: as §1, §2

CD94/NKG2A tetramer staining (CD94/NKG2A [2]) | Sequence | maximal response units (Rmax) compared to theoretical maximum (CD94/NKG2A [1]) | CD94/NKG2C tetramer and dextramer staining (CD94/NKG2C)
– | VNPGRSLFL [BFAR263-271, human peptide from Bifunctional apoptosis regulator] | lower maximal values compared to the theoretical maximum | –
positively stained cells | VMAPRTLFL [positive control] | – | minimal signal
